Measurements: patent publication US20200263231A1, “Fluorogenic dyes for high sensitivity DNA detection” (LIFE TECHNOLOGIES CORPORATION, priority 2016, published 2020)

Tests used:
[1] = system: calf thymus DNA; experiment: Fluorescence emission and enhancement of compounds bound to calf thymus DNA; type: binding; settings: 0.8 μM compound with 500 ng/ml calf thymus DNA in TE buffer; for Emission Max: excited at 488 nm; for Fluorescence Enhancement: emission area 500-715 nm compared to compound 1, defined as 1000-fold
Description: Compounds 1-65 were prepared and their fluorescence absorption and emission characteristics were measured. Intrinsic fluorescence of the compounds only (without DNA) was negligible. Emission spectra for the compounds bound to dsDNA were obtained by incubating 0.8 μM compound with 500 ng/ml calf thymus DNA in TE buffer (10 mM Tris-HCl, pH 7.5, 1 mM EDTA) in a final volume of 3 ml. Measurements were made using PerkinElmer LS 55 (F-11) Fluorescence spectrometer. Samples were excited at 488 nm and fluorescence emission was measured with emission slit widths of 2.5 nm. Absorption maxima were determined according to standard techniques.
Fluorescence enhancement measurements of the compounds were obtained by incubating 0.8 μM compound with 500 ng/ml calf thymus DNA with compounds at a final concentration of 0.8 μM in TE buffer. Compound 1 was used as an internal standard to control for variability (e.g., in excitation light intensity). The area-under-curve of fluorescence emission spectra from 500 nm to 715 nm was calculated, and compared to that of compound 1, which was defined as having 1000-fold fluorescence enhancement relative to fluorescence of the compound alone.

[2] = UV/VIS absorption spectra; type: physicochemical; settings: 10 μM compound in 50 mM potassium phosphate buffer (pH 7.0)
Description: The UV/VIS absorption spectra were obtained with 10 μM compound solution in 50 mM potassium phosphate buffer (pH 7.0) in a final volume of 3 mL. Measurements were carried out using a Lambda 245 spectrophotometer from Perkin Elmer.

[3] = system: dsDNA; experiment: Microplate fluorescence when bound to dsDNA; type: binding; settings: 500 ng/mL dsDNA
Description: Compounds were tested in triplicate for fluorescence enhancement when bound to dsDNA. 190 μL of 1 μM compound in 1× Tris-EDTA, pH 7.5, 0.01% CHAPS was added to 10 μL of 4 different concentrations of dsDNA (0, 25 ng/mL, 200 ng/mL, and 500 ng/mL) in wells of 96 well Costar black, clear bottom microplates. Plates were read on a SpectraFluor multifunction microplate reader (Tecan) at 491 nm excitation and 520 nm emission.
Compounds were tested for fluorescence enhancement when bound to dsDNA as described in Example 3. Fluorescence data with dsDNA are shown in FIG. 5 for the different tested compounds.

[4] = system: ssDNA; experiment: Microplate fluorescence when bound to ssDNA; type: binding; settings: for Ratio to R1, fluorescent emission with ssDNA / fluorescent emission with ssDNA: 500 ng/mL ssDNA; for ssDNA emission: text says 10 ng/μL
Description: The compounds from FIG. 1 were also characterized with respect to their fluorescence enhancement when bound to ssDNA. The compounds from FIG. 1, R1 and R2 were tested in triplicate. 190 μL of 1 μM compound in 1× Tris-EDTA pH7.5, 0.01% CHAPS was added to 10 μL of 4 different concentrations of ssDNA in wells of 96 well Costar black, clear bottom microplates. Plates were read on a SpectraFluor multifunction microplate reader (Tecan) at 491 nm excitation and 520 nm emission. Fluorescence data with ssDNA are shown in FIG. 3 for the different tested compounds.
Next, the compounds were compared for their fluorescence enhancement when bound to ssDNA as described in Example 1. Fluorescence data with ssDNA are shown in FIG. 6 for the different tested compounds.

[5] = system: dsDNA versus ssDNA; experiment: In vitro selectivity dsDNA versus ssDNA; type: binding
Description: Six compounds (2, 34, 35, 41, 42, and 48) were characterized in in vitro selectivity experiments for double-stranded DNA (dsDNA) versus single-stranded DNA (ssDNA). These compounds were compared against comparative compounds R^1 and R^2.
For each individual compound, the dsDNA and ssDNA fluorescence emission at 10 ng/μL was compared to evaluate in vitro selectivity for dsDNA/ssDNA, as shown in FIG. 4.
Further in vitro selectivity experiments for double-stranded DNA (dsDNA) versus single-stranded DNA (ssDNA) were performed using the methods outlined in Example 3 to compare compounds 2, 34, 41, 42, and 48 to comparative compounds R1 and R2.
For each individual compound, the dsDNA and ssDNA fluorescence emission at 10 ng/μL was calculated to estimate in vitro selectivity, as shown in FIG. 7.

[6] = Example 3, Table 2, 1 μM compound, 491 nm excitation, 520 nm emission
[7] = Example 3, Table 3, 1 μM compound, 491 nm excitation, 520 nm emission
[8] = Example 3, Table 4, FIG. 4 says 500 ng/mL
[9] = Example 4, Table 7, FIG. 7 says 500 ng/mL

Row | SMILES | Emission Max [1] [nm] | Fluorescence Enhancement [1] [fold] | Absorbance Max [2] [nm] | Ratio to R1, fluorescent emission with dsDNA ([3]; Example 3, Table 2) | fluorescent emission with dsDNA [3, 6] | Ratio to R1, fluorescent emission with ssDNA ([4]; Example 3, Table 3) | fluorescent emission with ssDNA [4, 7] | ssDNA emission [4, 8] | ratio of dsDNA emission versus ssDNA emission ([5]; Example 3, Table 4) | Ratio to R1, fluorescent emission with dsDNA ([3]; Example 4, Table 5) | fluorescent emission with dsDNA ([3]; Example 4, Table 5) | fluorescent emission with ssDNA ([4]; Example 4, Table 6) | ssDNA emission [4, 9] | ratio of dsDNA emission versus ssDNA emission ([5]; Example 4, Table 7)
1 | CCCCN(CCC[N+](C)(C)C)C1=CC(=Cc2sc3ccccc3[n+]2C)c2ccc(OC)cc2N1c1ccccc1.[I-].[I-] [Compound 35] | 518 | 1069 | 489 | 2.05 | 11136 | 2.3 | 2515 | 2515 | 4.4 | – | – | – | – | –
2 | CCCCN(CCCN(C)C)C1=CC(=Cc2sc3ccccc3[n+]2C)c2ccc(OC)cc2N1c1ccccc1.[I-] [Compound 34] | 517 | 1071 | 488 | 1.92 | 10452 | 2.4 | 2578 | 2578 | 4.1 | 2.1 | 12434 | 2603 | 2603 | 4.8
3 | CCCN(CCC[N+](C)(C)C)C1=CC(=Cc2sc3ccccc3[n+]2C)c2ccccc2N1c1ccccc1.[Cl-].[I-] [Compound 2] | 523 | 964 | 501 | 1.74 | 9494 | 1.6 | 1773 | 1773 | 5.4 | 1.8 | 10339 | 1767 | 1767 | 5.9
4 | CCCN(CCC[N+](C)(C)C)C1=CC(=Cc2sc3ccccc3[n+]2C)c2ccc(OC)cc2N1c1ccccc1.[I-].[I-] [Compound 42] | 519 | 1070 | 494 | 2.00 | 10860 | 2.8 | 3017 | 3017 | 3.6 | 2.3 | 13580 | 3078 | 3078 | 4.4
5 | CCN(CCCN(C)C)C1=CC(=Cc2sc3ccccc3[n+]2C)c2ccc(OC)cc2N1c1ccccc1.[I-] [Compound 48] | 520 | 1016 | 489 | 1.72 | 9350 | 2.5 | 2739 | 2739 | 3.4 | 1.9 | 11400 | 2477 | 2477 | 4.6
6 | CCCN(CCCN(C)C)C1=CC(=Cc2sc3ccccc3[n+]2C)c2ccc(OC)cc2N1c1ccccc1.[I-] [Compound 41] | 517 | 1020 | 493 | 1.83 | 9936 | 2.7 | 2878 | 2878 | 3.5 | 1.9 | 11424 | 2814 | 2814 | 4.1
7 | COc1ccc2c(c1)N(c1ccccc1)C(N(CCC[N+](C)(C)C)CCC[N+](C)(C)C)=CC2=Cc1sc2ccccc2[n+]1C.I [Compound R2, reference compound] | – | – | – | 1.59 | 8627 | 1.5 | 1669 | 1669 | 5.2 | 1.7 | 9941 | 1512 | 1512 | 6.6
8 | CN(C)CCCN(CCCN(C)C)C1=CC(=Cc2sc3ccccc3[n+]2C)c2ccccc2N1c1ccccc1.[I-] [Compound R1, reference compound] | – | – | – | 1.00 | 5441 | 1.0 | 1081 | 1081 | 5.0 | 1.0 | 5887 | 1080 | 1080 | 5.5
